From patent US9603928B2, “Medicinal composition for promoting synthesis of protoporphyrin IX” (SBI Pharmaceuticals Co., Ltd., priority 2013, dated 2017)

Tests used:
Format in all cases: cell-based
[1] = system: Multi-drug resistant Pseudomonas aeruginosa (MDRP: ATCC BAA-2110); test: Number of MDRP bacteria after ALA + EDTA with or without PDT (LED 410 nm); settings: no PDT, 18 hours of culture, ALA 1 mg/ml, EDTA 400 mg/ml where added, start 1×10^9 CFU/ml
Experimental: Multi-drug resistant Pseudomonas aeruginosa (MDRP: ATCC BAA-2110) was cultured for 24 hours at 37° C. with tryptic soy broth medium (TBS: from DIFCO). Then, the TBS medium comprising MDRP at 1×10^9 CFU/ml was dispensed in a 12-well plate at 1 ml per well, and ALA was added to a final concentration of 1 mg/ml and EDTA was added to a final concentration of 400 mg/ml. These were divided into the group subjected to PDT (PDT group) and the group not subjected to PDT (non-PDT group) (each n=1). For the control group, only ALA at a final concentration of 1 mg/ml was added to 1 ml of the TBS medium comprising MDRP at 1×10^9 CFU/ml, and PDT was not carried out. The control group and the non-PDT group were cultured for 18 hours, and the number of bacteria in each well was counted. The PDT group was cultured for 18 hours, irradiated with LED (410 nm) at 50 J/cm^2, and then the number of bacteria was counted.

[2] = system: Multi-drug resistant Pseudomonas aeruginosa (MDRP: ATCC BAA-2110); test: HPLC measurement of coproporphyrinogen III (CPIII) and protoporphyrin IX (PpIX) in MDRP cultured with ALA / ALA + EDTA; settings: 4 hours after start of culture, ALA 0.5 mg/ml, EDTA 400 mg/ml where added
Experimental: Multi-drug resistant Pseudomonas aeruginosa (MDRP: ATCC BAA-2110) was placed in tryptic soy broth medium (TBS: from DIFCO), and cultured at 37° C. for 24 hours. With an absorptiometer, the TBS medium comprising the cultured MDRP was adjusted to 1×10^9 CFU (Colony forming unit)/ml. In a 12-well plate, the following solutions (1)-(3) were each prepared and cultured. (1): TBS medium comprising MDRP adjusted to 1×10^9 CFU/ml, (2): a solution of (1) and ALA added to a final concentration of 0.5 mg/ml, and (3): a solution of (1) and ALA added to a final concentration of 0.5 mg/ml and EDTA added to a final concentration of 400 mg/ml. The solutions were collected 4 hours after the start of culture, and suspended in 0.25 ml of PBS per 1 g of the pelleted bacteria. To 0.2 ml of the suspension, 0.01 ml of 50% acetic acid and 0.9 ml of DMF/IPA (100:1) were added, vortexed, and separated by centrifugation (14, 000 rpm, 5 min, 4° C.). The concentrations of coproporphyrinogen III (CPIII) and protoporphyrin IX (PpIX) in the supernatant after centrifugal separation were measured with HPLC.

[3] = system: Multi-drug resistant Pseudomonas aeruginosa (MDRP: BAA-2110); test: Number of MDRP bacteria after ALA + chelating agent other than EDTA with or without LED irradiation (PDT); settings: Irradiation No, average values
Experimental: Multi-drug resistant Pseudomonas aeruginosa (MDRP: BAA-2110) was cultured in tryptic soy broth medium (TBS: from DIFCO) for 24 hours at 37° C. Next, the TBS medium comprising MDRP was dispensed in a 12-well dish at 1 ml per well (1×10^4−2×10^5 CFU/mL). ALA at a final concentration of 1 mg/ml and a chelating agent other than EDTA (2.5 mg/mL of citric acid, 2.5 mg/mL of malic acid, 1 mg/mL of diethylenetriaminepentaacetic acid (DTPA), 1 mg/mL of triethylenetetramine-N,N,N′,N″,N′″,N″′-hexaacetic acid, 1 mg/mL of N-(2-hydroxyethyl) iminodiacetic acid, and 1 mg/mL of deferoxamine mesylate, each at final concentration) were added to each dish. For the control group, only ALA at a final concentration of 1 mg/ml was added to 1 ml of the TBS medium comprising MDRP. Next, these were cultured for 5 hours, and the number of bacteria in each well was counted. The PDT group was cultured for 5 hours, and then irradiated with LED (410 nm) at 50 J/cm^2, after which the number of bacteria was counted, and further the number of bacteria at 19 hours after irradiation was also counted.

[4] = supernatant of bacterial extract, HPLC

Structure (SMILES): NCC(=O)CCC(=O)O [ALA, 5-aminolevulinic acid]
- Bacterial count (CFU/ml) ([1]; listed as Control): 4.2 × 10^9 CFU/ml
- Bacterial count (CFU/ml) ([1]; listed as control): 4.2×10^9 CFU/ml
- proportion of PpIX against CPIII [2]: approximately 5.5%
- CPIII [2, 4]: 889.6 nM
- PpIX [2, 4]: 49.0 nM
- 5 hours after addition of ALA + chelating agent (CFU/mL) ([3]; ALA 1 mg/ml): 3.6 × 10^5 CFU/mL
- 19 hours after irradiation (CFU/mL) ([3]; ALA 1 mg/ml): 1.4 × 10^9 CFU/mL
- At the time of culture (CFU/mL) ([3]; starting count): 5.7 × 10^4 CFU/mL
